According to US8796415B2, “Inhibitors of guanine exchange factors and their use as anticancer drugs” (Centre National de la Recherche Scientifique, priority 2009, dated 2014):
Ends that are not written are not given here.

Tests used:
Type in all cases: biochemical
Trio DH2-PH2 = target: T1, Trio DH2-PH2 (Homo sapiens, UniProt O75962); experiment: [3H]-GDP dissociation assay on Trio DH2-PH2; details: 0.15 μM GST-Trio DH2-PH2, 3 μM GST-TRIP inhibitors
T1 construct: made in house
Procedure: Each residue of the active core of TRIPα (amino acids 9-36; Schmidt et al., 2002) was mutated to alanine, except cysteines which were changed into serines. All TRIPα mutants were then tested for their inhibitory activity on Trio DH2-PH2 in [3H]-GDP dissociation assays. This analysis mapped two essential regions of TRIPα, amino acids 9-20 and 28-33, where single mutations were sufficient to impair inhibition (see table 3).
The inventors next reasoned that peptides that would bind stronger to the GEF domain may also be better at inhibiting its activity. […] These clones were then produced as GST fusions and analyzed for their inhibition of Trio DH2-PH2, using the [3H]-GDP dissociation assay. […]
An aptamer library derived from TRIPα was created by PCR-based random mutagenesis of TRIPα inserted into the yeast two-hybrid vector pPC86. […] Selected peptides were then produced as GST-fusions and analyzed for their inhibition of Trio DH2-PH2 using the [3H]-GDP dissociation assay.
Radioactive [3H]-GDP dissociation assays were performed as described (Schmidt et al., 2002). […] Inhibition efficiency is expressed as the ratio between [3H]-GDP-bound RhoA at 15 and 0 min. Apparent inhibition constants (Kiapp) of TRIP-like peptides were determined from kobs values obtained at increasing peptide concentrations using the above fluorescence nucleotide exchange assay. […]

p115RhoGEF = target: T2, p115RhoGEF (Homo sapiens, UniProt Q92888); experiment: mant-GTP fluorescence kinetics specificity assay, RhoA/p115RhoGEF; details: peptide 20 μM, 0.5 μM GEF, 1 μM RhoA
T2 construct: GST (N); made in house; host or cells: baculovirus system
T2 sequence (Q92888 1-912): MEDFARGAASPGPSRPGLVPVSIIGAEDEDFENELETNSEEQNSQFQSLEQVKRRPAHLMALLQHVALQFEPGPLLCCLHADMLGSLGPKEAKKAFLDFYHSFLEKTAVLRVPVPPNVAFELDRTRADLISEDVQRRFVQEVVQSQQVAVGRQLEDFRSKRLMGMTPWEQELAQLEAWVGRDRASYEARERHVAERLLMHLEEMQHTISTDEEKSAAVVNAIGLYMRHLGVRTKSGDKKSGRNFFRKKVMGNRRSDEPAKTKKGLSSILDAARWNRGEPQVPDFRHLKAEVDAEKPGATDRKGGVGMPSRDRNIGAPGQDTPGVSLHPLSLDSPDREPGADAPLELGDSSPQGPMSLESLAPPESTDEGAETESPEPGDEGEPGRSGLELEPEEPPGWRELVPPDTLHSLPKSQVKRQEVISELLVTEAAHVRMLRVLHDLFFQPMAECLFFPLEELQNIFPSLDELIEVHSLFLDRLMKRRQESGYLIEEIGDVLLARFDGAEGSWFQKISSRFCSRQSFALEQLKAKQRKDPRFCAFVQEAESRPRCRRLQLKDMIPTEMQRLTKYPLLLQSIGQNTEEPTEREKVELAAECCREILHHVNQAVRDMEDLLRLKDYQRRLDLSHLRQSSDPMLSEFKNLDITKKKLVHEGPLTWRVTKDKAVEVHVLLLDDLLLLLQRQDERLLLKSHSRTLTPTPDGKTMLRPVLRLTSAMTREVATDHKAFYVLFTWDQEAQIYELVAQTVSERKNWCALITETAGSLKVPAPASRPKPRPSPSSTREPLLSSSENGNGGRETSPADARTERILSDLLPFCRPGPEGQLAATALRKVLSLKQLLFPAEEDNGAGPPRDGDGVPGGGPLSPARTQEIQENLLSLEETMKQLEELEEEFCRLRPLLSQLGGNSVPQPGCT
Procedure: (§1) Figures represent the comparison of TRIPE32G and TRIPT16M/L17S inhibition efficiency on different GTPase/RhoGEF systems, using 1 μM GTPase and 0.5 μM GEF as follows:
(§2) In each assay, the peptides were used at a concentration of 20 μM, corresponding to a 40 fold molar excess of inhibitor versus GEF. All fluorescence kinetics assays were performed using 1 μM mant-GTP. Results are expressed as Relative Fluorescence Units (RFU) versus time. The reaction performed in the absence of GEF reflects the spontaneous exchange activity of the GTPase.
(§3) Radioactive [3H]-GDP dissociation assays were performed as described (Schmidt et al., 2002). […] Inhibition efficiency is expressed as the ratio between [3H]-GDP-bound RhoA at 15 and 0 min. Apparent inhibition constants (Kiapp) of TRIP-like peptides were determined from kobs values obtained at increasing peptide concentrations using the above fluorescence nucleotide exchange assay. Kiapp was calculated from the hyperbolic fit of kobs values as a function of the inhibitor concentration as described (Zeeh et al., 2006). TRIP-like peptide specificity was assayed using mant-GTP fluorescence kinetics (λex=360 nm, λem=460 nm) in a FLX800 Microplate Fluorescence Reader (BioTek Instruments). […] The exchange reaction was initiated by addition of 1 μM RhoA or RhoG and monitored for 10 min.

p63RhoGEF = target: T3, p63RhoGEF (Homo sapiens, UniProt Q86VW2); experiment: mant-GTP fluorescence kinetics specificity assay, RhoA/p63RhoGEF; details: peptide 20 μM, 0.5 μM GEF, 1 μM RhoA
T3 construct: GST-p63RhoGEF (DH domain) and GST-RhoG were purified as described previously; GST (N); made in house
T3 sequence (Q86VW2 160-336 limits assumed): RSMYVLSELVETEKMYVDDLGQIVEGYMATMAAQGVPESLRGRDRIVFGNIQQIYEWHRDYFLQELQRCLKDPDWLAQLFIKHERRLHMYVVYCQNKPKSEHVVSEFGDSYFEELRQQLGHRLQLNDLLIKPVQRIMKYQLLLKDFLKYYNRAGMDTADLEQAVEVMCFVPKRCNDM
Procedure: as §1, §2, §3

Tgat = experiment: mant-GTP fluorescence kinetics specificity assay, RhoA/Tgat; details: peptide 20 μM, 0.5 μM Tgat, 1 μM RhoA, 1 μM mant-GTP
Procedure: as §1, §2, §3

Trio DH1-PH1 = target: T4, Trio DH1-PH1 (Homo sapiens, UniProt O75962); experiment: mant-GTP fluorescence kinetics specificity assay, RhoG/Trio DH1-PH1; details: peptide 20 μM, 1 μM RhoG
T4 construct: Recombinant GST-Trio DH2-PH2, GST-Trio DH1-PH1, GST-Dbl (DH-PH domain); GST (N); made in house
Procedure: as §1, §2, §3

| Inhibition efficiency on Trio DH2-PH2 compared to TRIPα (Trio DH2-PH2) | effect on exchange activity of p115RhoGEF/RhoA (p115RhoGEF) | effect on exchange activity of p63RhoGEF/RhoA (p63RhoGEF) | effect on exchange activity of Trio DH1-PH1/RhoG (Trio DH1-PH1) | Substance | inhibition of Tgat exchange activity on RhoA (Tgat) |
| --- | --- | --- | --- | --- | --- |
| highest inhibition on Trio DH2-PH2 | no effect | no effect | no effect | GST-TRIPE32G (AREGADGAICGYNLATLVMLGPSERVFCPLCGPCSSDIYELM; cysteine pairing not given here; also: GST fusion) | fully inhibited |
| highest inhibition on Trio DH2-PH2 | no effect | no effect | no effect | GST-TRIPT16M/L17S | fully inhibited |
